In US10849854B2, “Process for preparing a composition comprising a high concentration of one or more avermectins” (GALDERMA SA, priority 2015, dated 2020):

Test: Solubility of ivermectin in propylene glycol/oleyl alcohol (1/1) solubilizing medium
Format: physicochemical
Details: mixed propylene glycol/oleyl alcohol (1/1) solubilizing medium
Source text: Although these prior attempts have allowed formulating ivermectin in emulsions which remain stable despite temperature and/or pH variations, it has been observed that the amount of ivermectin that could be introduced into these emulsions was limited. Specifically, at most 33% by weight of ivermectin can be fully dissolved in a mixed propylene glycol/oleyl alcohol (1/1) solubilizing medium. Beyond this concentration, ivermectin tends to crystallize in the active phase before the emulsion is prepared and/or in the resulting emulsion, optionally when subjected to freeze/thaw cycles. Increasing the amount of glycols in the emulsion would raise other issues, since the emulsion stability would be detrimentally affected and the emulsion would become too sticky to be commercially acceptable. Therefore, from a practical point of view, it has not been possible so far to formulate emulsions comprising 2% or more by weight of ivermectin, which remains fully dissolved ivermectin over the time.

**Q.** Which “Amount of ivermectin that can be fully dissolved” value does the source give for ivermectin here?
**A.** at most 33 % by weight
